Measurements published in PubChem BioAssay AID1918993 (Molecular Pharmacology Branch, DTP, NCI, 2023).

Tested on: 233499-124-R-J3-PDC complex spheroid growth
Experiment: Anticancer human tumor 233499-124-R-J3-PDC patient-derived colon adenocarcinoma cell line growth inhibition [AhR]
Conditions: for IC50: curve of first compound; for viability, T/C: stronger effect = lower value
Description: Multicellular complex tumor spheroid response to aryl hydrocarbon receptor antagonists in combination with a variety of drugs and investigational agents in selected tumor cell lines
The current study was undertaken to assess response to aryl hydrocarbon receptor antagonists in combination with standard-of-care drugs and investigational agents in solid tumor complex spheroid models. Complex spheroids include a stromal component modeled by human endothelial cells (HUVEC) and fibroblasts modeled by human mesenchymal stem cells (MSCs). The concentration ranges selected for each drug and investigational agent were based upon clinically achievable concentrations if the clinical Cmax of the agent was known.
Compounds. The drugs and investigational agents: BAY 2416964 (NSC825713), GNF351 (NSC835774), CH-223191 (NSC835775), CPI-455 (NSC825282), aza-TdCyd (NSC777586), decitabine (NSC127716), belinostat (NSC758774), entinostat (NSC756642), pevonedistat (NSC761192), tazemetostat (NSC777109), talazoparib (NSC765396), olaparib (NSC753686), selinexor (NSC780203), nedisertib (M3814, NSC802822), bortezomib (NSC756655), venetoclax (NSC766270), doxorubicin (NSC123127), elimusertib (BAY189344, NSC800525), ceralasertib (AZD6738, NSC777638), TAK-243 (NSC785004), alisertib (NSC759677), etoposide (NSC141540), topotecan (NSC609699), eribulin (NSC707389), gemcitabine (NSC613327), carboplatin (NSC241240), cisplatin (NSC119875), and SN-38 (NSC673596) were obtained from the National Cancer Institute (NCI) Developmental Therapeutics Program Chemical Repository (32). The FDA-approved anticancer drug set is available from the Developmental Therapeutics Program at https://dtp.cancer.gov/organization/dscb/obtaining/available plates.htm. […] The stock solutions were prepared in dimethyl sulfoxide (DMSO, Sigma-Aldrich, St. Louis, MO, cat. D2650), except for the platinum compounds which were prepared in saline (Quality Biological, Gaithersburg, MD, cat. 114-055-101), at 800-fold the tested concentration and stored at -70 degrees C prior to their use. All drugs and investigational agents were tested over a range starting from a high concentration at or near the clinical Cmax and decreasing in half-log increments. If the clinical Cmax for an agent had not been determined, the highest concentration tested was 10 microM (Table 1).
Cell Culture. All cells were maintained in an incubator at 37 degrees C and 5% CO2 with 95% humidity. The PDC lines were cultured according to standard operating procedures established by the NCI PDMR (https://pdmr.cancer.gov). Briefly, all PDCs were thawed and cultured in Matrigel-coated flasks prepared with a working solution of 1X Ham's F-12 nutrient mix, without supplementation (Invitrogen, Waltham, MA, cat. 11765054), 100 U/mL penicillin-streptomycin (Invitrogen, cat. 15140122), and 2.5% Matrigel (Corning Inc., Corning, NY, cat. 354248) for the first three passages. All PDCs were cultured in complete DMEM/F-12 media containing advanced DMEM/F-12 (Invitrogen, cat. 12634028), 4.9% defined fetal bovine serum, heat inactivated (HyClone Laboratories Inc., Logan, UT, cat. SH30070.03HI), 389 ng/mL hydrocortisone (Sigma-Aldrich, cat. H4001), 9.7 ng/mL human EGF recombinant protein (Invitrogen, cat. PHG0313), 23.4 microg/mL adenine (Sigma-Aldrich, cat. A2786), 97.3 U/mL penicillin-streptomycin (Invitrogen, cat. 15140122), 1.9 mM L-glutamine (Invitrogen, cat. 25030081), and 9.7 microM Y-27632 dihydrochloride (Tocris Bioscience, Bristol, United Kingdom, cat. 1254). The PDCs were cultured in complete DMEM/F12 media without 10 microM Y-27632 dihydrochloride for at least two passages prior to the screen. The established cell lines NCI-H1341 and […] were cultured in DMEM/F-12, HEPES (Invitrogen, cat. 11330032), 5% defined fetal bovine serum (HyClone Laboratories Inc., cat. SH30070.03), ITS premix universal culture supplement [insulin (5 microg/mL), transferrin (5 microg/mL), and selenious acid (5 ng/mL)] […]

[1] = second compound 0.1 µM, first compound 0.0316 µM
[2] = second compound 0.1 µM, first compound 0.1 µM
[3] = second compound 0.1 µM, first compound 0.316 µM
[4] = second compound 0.1 µM, first compound 1 µM
[5] = second compound 0.1 µM, first compound 3.16 µM
[6] = second compound 0.1 µM, first compound 10 µM
[7] = second compound 0.316 µM, first compound 0.0316 µM
[8] = second compound 0.316 µM, first compound 0.1 µM
[9] = second compound 0.316 µM, first compound 0.316 µM
[10] = second compound 0.316 µM, first compound 1 µM
[11] = second compound 0.316 µM, first compound 3.16 µM
[12] = second compound 0.316 µM, first compound 10 µM
[13] = second compound 1 µM, first compound 0.0316 µM
[14] = second compound 1 µM, first compound 0.1 µM
[15] = second compound 1 µM, first compound 0.316 µM
[16] = second compound 1 µM, first compound 1 µM
[17] = second compound 1 µM, first compound 3.16 µM
[18] = second compound 1 µM, first compound 10 µM
[19] = second compound 3.16 µM, first compound 0.0316 µM
[20] = second compound 3.16 µM, first compound 0.1 µM
[21] = second compound 3.16 µM, first compound 0.316 µM
[22] = second compound 3.16 µM, first compound 1 µM
[23] = second compound 3.16 µM, first compound 3.16 µM
[24] = second compound 3.16 µM, first compound 10 µM
[25] = second compound 10 µM, first compound 0.0316 µM
[26] = second compound 10 µM, first compound 0.1 µM
[27] = second compound 10 µM, first compound 0.316 µM
[28] = second compound 10 µM, first compound 1 µM
[29] = second compound 10 µM, first compound 3.16 µM
[30] = second compound 10 µM, first compound 10 µM
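Note: spheroids exposed to agents for seven days before reading.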

In the case of Nc1ncn(C2CC(O)C(CO)S2)c(=O)n1 (stereo not given) + Cc1cncc(-c2nc(NCCc3c[nH]c4ccccc34)c3ncn(C(C)C)c3n2)c1, the IC50 (second compound 0.1 µM) is reported as > 0.3 µM, the IC50 (second compound 0.316 µM) is reported as > 0.3 µM and the IC50 (second compound 1 µM) is reported as > 0.3 µM. For the same compound, the IC50 (second compound 3.16 µM) was > 0.3 µM, the IC50 (second compound 10 µM) was < 0.000949 µM and the viability, T/C (second compound 0.1 µM, first compound 0.000949 µM) was 89.6%. For the same compound, the viability, T/C (second compound 0.1 µM, first compound 0.003 µM) was 96.5%, the viability, T/C (second compound 0.1 µM, first compound 0.00949 µM) was 89.8% and the viability, T/C (second compound 0.1 µM, first compound 0.03 µM) was 93.9%. For the same compound, the viability, T/C (second compound 0.1 µM, first compound 0.0949 µM) was 103%, the viability, T/C (second compound 0.1 µM, first compound 0.3 µM) was 103% and the viability, T/C (second compound 0.316 µM, first compound 0.000949 µM) was 72.9%. For the same compound, the viability, T/C (second compound 0.316 µM, first compound 0.003 µM) was 83%, the viability, T/C (second compound 0.316 µM, first compound 0.00949 µM) was 86.9% and the viability, T/C (second compound 0.316 µM, first compound 0.03 µM) was 89.6%. The viability, T/C (second compound 0.316 µM, first compound 0.0949 µM) was 96.9%, the viability, T/C (second compound 0.316 µM, first compound 0.3 µM) was 97.1% and the viability, T/C (second compound 1 µM, first compound 0.000949 µM) was 77.3%. The viability, T/C (second compound 1 µM, first compound 0.003 µM) was 66.2%, the viability, T/C (second compound 1 µM, first compound 0.00949 µM) was 84.6% and the viability, T/C (second compound 1 µM, first compound 0.03 µM) was 85.6%. It also gave a viability, T/C (second compound 1 µM, first compound 0.0949 µM) of 89.1%, a viability, T/C (second compound 1 µM, first compound 0.3 µM) of 83.4% and a viability, T/C (second compound 3.16 µM, first compound 0.000949 µM) of 101%. The viability, T/C (second compound 3.16 µM, first compound 0.003 µM) was 94.3%, the viability, T/C (second compound 3.16 µM, first compound 0.00949 µM) was 97.1% and the viability, T/C (second compound 3.16 µM, first compound 0.03 µM) was 103%. For the same compound, the viability, T/C (second compound 3.16 µM, first compound 0.0949 µM) was 104%, the viability, T/C (second compound 3.16 µM, first compound 0.3 µM) was 99.4% and the viability, T/C (second compound 10 µM, first compound 0.000949 µM) was 8.85%. For the same compound, the viability, T/C (second compound 10 µM, first compound 0.003 µM) was 8.14%, the viability, T/C (second compound 10 µM, first compound 0.00949 µM) was 14.4% and the viability, T/C (second compound 10 µM, first compound 0.03 µM) was 16.2%. For the same compound, the viability, T/C (second compound 10 µM, first compound 0.0949 µM) was 20.1% and the viability, T/C (second compound 10 µM, first compound 0.3 µM) was 26.1%.

In the case of Nc1ccccc1NC(=O)c1ccc(CNC(=O)OCc2cccnc2)cc1 + Cc1ccccc1N=Nc1ccc(NC(=O)c2ccnn2C)c(C)c1, the IC50 (second compound 0.1 µM) is reported as 5.08 µM, the IC50 (second compound 0.316 µM) is reported as 5.64 µM and the IC50 (second compound 1 µM) is reported as 5.44 µM. For the same compound, the IC50 (second compound 3.16 µM) was 5.35 µM, the IC50 (second compound 10 µM) was 4.81 µM and the viability, T/C [1] was 116%. It also gave a viability, T/C [2] of 93.3%, a viability, T/C [3] of 106% and a viability, T/C [4] of 129%. It also gave a viability, T/C [5] of 80%, a viability, T/C [6] of 7.02% and a viability, T/C [7] of 116%. The viability, T/C [8] was 103%, the viability, T/C [9] was 119% and the viability, T/C [10] was 113%. It also gave a viability, T/C [11] of 93%, a viability, T/C [12] of 7.54% and a viability, T/C [13] of 116%. The viability, T/C [14] was 107%, the viability, T/C [15] was 117% and the viability, T/C [16] was 130%. The viability, T/C [17] was 86.4%, the viability, T/C [18] was 9.07% and the viability, T/C [19] was 112%. The viability, T/C [20] was 106%, the viability, T/C [21] was 118% and the viability, T/C [22] was 113%. The viability, T/C [23] was 86.8%, the viability, T/C [24] was 6.35% and the viability, T/C [25] was 93.4%. For the same compound, the viability, T/C [26] was 108%, the viability, T/C [27] was 105% and the viability, T/C [28] was 109%. For the same compound, the viability, T/C [29] was 74.4% and the viability, T/C [30] was 7.59%.

With COc1cccc2c1C(=O)c1c(O)c3c(c(O)c1C2=O)CC(O)(C(=O)CO)CC3OC1CC(N)C(O)C(C)O1 (stereo not given) + Cc1ccccc1N=Nc1ccc(NC(=O)c2ccnn2C)c(C)c1 the IC50 (second compound 0.1 µM) was > 10 µM, the IC50 (second compound 0.316 µM) was 8.8 µM and the IC50 (second compound 1 µM) was > 10 µM. For the same compound, the IC50 (second compound 3.16 µM) was > 10 µM, the IC50 (second compound 10 µM) was > 10 µM and the viability, T/C [1] was 87%. It also gave a viability, T/C [2] of 92.3%, a viability, T/C [3] of 102% and a viability, T/C [4] of 91.7%. For the same compound, the viability, T/C [5] was 83.3%, the viability, T/C [6] was 60.2% and the viability, T/C [7] was 80.4%. For the same compound, the viability, T/C [8] was 92.6%, the viability, T/C [9] was 95.9% and the viability, T/C [10] was 85.3%. It also gave a viability, T/C [11] of 72.2%, a viability, T/C [12] of 47.2% and a viability, T/C [13] of 97.2%. For the same compound, the viability, T/C [14] was 99%, the viability, T/C [15] was 102% and the viability, T/C [16] was 86.3%. For the same compound, the viability, T/C [17] was 81.6%, the viability, T/C [18] was 71.9% and the viability, T/C [19] was 88.3%. It also gave a viability, T/C [20] of 92.1%, a viability, T/C [21] of 97.7% and a viability, T/C [22] of 107%. It also gave a viability, T/C [23] of 86.8%, a viability, T/C [24] of 78% and a viability, T/C [25] of 95.2%. It also gave a viability, T/C [26] of 95.1%, a viability, T/C [27] of 94.4% and a viability, T/C [28] of 98.7%. The viability, T/C [29] was 96% and the viability, T/C [30] was 78.7%.
